In ChEMBL document CHEMBL3085671, “5,6-Dihydro-5-aza-2'-deoxycytidine potentiates the anti-HIV-1 activity of ribonucleotide reductase inhibitors” (Bioorg Med Chem, 2013):
The source made the active and inactive calls. No cut-off for these calls is given here.

Legend:
[1] = Cytotoxicity against human U373-MAGI cells by CellTitre-Glo assay; format: cell-based
[2] = tested on: Human immunodeficiency virus 1; assay: Antiviral activity against HIV1 infected in human U373-MAGI cells assessed as C to T mutation at 20 nM (reference value: 13%); format: functional
[3] = tested on: Human immunodeficiency virus 1; assay: Antiviral activity against HIV1 infected in human U373-MAGI cells assessed as induction of mutations at 20 nM (reference value: 18%); format: functional
[4] = tested on: Human immunodeficiency virus 1; assay: Antiviral activity against HIV1 infected in human U373-MAGI cells assessed as A to G mutation at 20 nM (reference value: 22%); format: functional
[5] = tested on: Human immunodeficiency virus 1; assay: Antiviral activity against HIV1 infected in human U373-MAGI cells assessed as G to A mutation at 20 nM (reference value: 27%); format: functional
[6] = tested on: Human immunodeficiency virus 1; assay: Antiviral activity against HIV1 infected in human U373-MAGI cells assessed as T to C mutation at 20 nM (reference value: 18%); format: functional
[7] = tested on: Human immunodeficiency virus 1; assay: Antiviral activity against HIV1 infected in human U373-MAGI cells assessed as increase in mutant frequency incubated for 2 hrs prior to viral infection followed by compound washout after 24 hrs measured 72 hrs post-infection by flow cytometry; format: functional, organism-based
[8] = tested on: Human immunodeficiency virus 1; assay: Antiviral activity against HIV1 assessed as viral infection; format: functional, organism-based
[9] = tested on: Human immunodeficiency virus 1; assay: Antiviral activity against HIV1 infected in human U373-MAGI cells incubated for 2 hrs prior to viral infection followed by compound washout after 24 hrs measured 72 hrs post-infection by flow cytometry; format: functional, organism-based; conditions: Human immunodeficiency virus 1, U373-MAGI
[10] = Selectivity index, ratio of CC50 for human U373-MAGI cells to EC50 for HIV1 infected in human U373-MAGI cells; format: toxicity, cell-based; conditions: read-out: Ratio CC50/EC50
[11] = tested on: Human immunodeficiency virus 1; assay: Antiviral activity against HIV1 infected in human U373-MAGI cells assessed as G to A mutation at 50 uM (reference value: 27%); format: functional
[12] = tested on: Human immunodeficiency virus 1; assay: Antiviral activity against HIV1 infected in human U373-MAGI cells assessed as T to C mutation at 50 uM (reference value: 18%); format: functional
[13] = tested on: Human immunodeficiency virus 1; assay: Antiviral activity against HIV1 infected in human U373-MAGI cells assessed as induction of mutations at 50 uM (reference value: 18%); format: functional
[14] = tested on: Human immunodeficiency virus 1; assay: Antiviral activity against HIV1 infected in human U373-MAGI cells assessed as A to G mutation at 50 uM (reference value: 22%); format: functional
[15] = tested on: Human immunodeficiency virus 1; assay: Antiviral activity against HIV1 infected in human U373-MAGI cells assessed as C to T mutation at 50 uM (reference value: 13%); format: functional
[16] = tested on: Human immunodeficiency virus 1; assay: Potentiation of resveratrol-induced antiviral activity against HIV1 infected in human U373-MAGI cells assessed as C to T mutation at 200 uM (reference value: 13%); format: functional
[17] = tested on: Human immunodeficiency virus 1; assay: Potentiation of deferoxamine-induced antiviral activity against HIV1 infected in human U373-MAGI cells assessed as increase in mutant frequency at 5 to 200 uM incubated for 2 hrs prior to viral infection followed by compound washout after 24 hrs measured 72 hrs post-infection by flow cytometry relative to control; format: functional
[18] = tested on: Human immunodeficiency virus 1; assay: Potentiation of deferoxamine-induced antiviral activity against HIV1 infected in human U373-MAGI cells at 200 uM incubated for 2 hrs prior to viral infection followed by compound washout after 24 hrs measured 72 hrs post-infection by flow cytometry; format: functional, organism-based; conditions: Human immunodeficiency virus 1, U373-MAGI
[19] = tested on: Human immunodeficiency virus 1; assay: Antiviral activity against HIV1 infected in human U373-MAGI cells assessed as T to C mutation at 200 uM (reference value: 18%); format: functional
[20] = tested on: Human immunodeficiency virus 1; assay: Antiviral activity against HIV1 infected in human U373-MAGI cells assessed as induction of mutations at 200 uM (reference value: 18%); format: functional
[21] = tested on: Human immunodeficiency virus 1; assay: Potentiation of gemcitabine-induced antiviral activity against HIV1 infected in human U373-MAGI cells assessed as T to C mutation at 5 uM (reference value: 18%); format: functional
[22] = tested on: Human immunodeficiency virus 1; assay: Potentiation of gemcitabine-induced antiviral activity against HIV1 infected in human U373-MAGI cells assessed as increase in mutant frequency at 25 uM incubated for 2 hrs prior to viral infection followed by compound washout after 24 hrs measured 72 hrs post-infection by flow cytometry relative to control; format: functional
[23] = tested on: Human immunodeficiency virus 1; assay: Antiviral activity against HIV1 infected in human U373-MAGI cells at 5 to 200 uM incubated for 2 hrs prior to viral infection followed by compound washout after 24 hrs measured 72 hrs post-infection by flow cytometry; format: functional, organism-based
[24] = Cytotoxicity against human U373-MAGI cells up to 200 uM by CellTitre-Glo assay; format: cell-based
[25] = tested on: Human immunodeficiency virus 1; assay: Antiviral activity against HIV1 infected in human U373-MAGI cells assessed as A to G mutation at 200 uM (reference value: 22%); format: functional
[26] = tested on: Human immunodeficiency virus 1; assay: Potentiation of gemcitabine-induced antiviral activity against HIV1 infected in human U373-MAGI cells assessed as G to C mutation at 5 uM; format: functional
[27] = tested on: Human immunodeficiency virus 1; assay: Potentiation of gemcitabine-induced antiviral activity against HIV1 infected in human U373-MAGI cells at 5 to 50 uM incubated for 2 hrs prior to viral infection followed by compound washout after 24 hrs measured 72 hrs post-infection by flow cytometry; format: functional, organism-based
[28] = tested on: Human immunodeficiency virus 1; assay: Potentiation of gemcitabine-induced antiviral activity against HIV1 infected in human U373-MAGI cells at 5 uM incubated for 2 hrs prior to viral infection followed by compound washout after 24 hrs measured 72 hrs post-infection by flow cytometry; format: functional, organism-based; conditions: Human immunodeficiency virus 1, U373-MAGI
[29] = tested on: Human immunodeficiency virus 1; assay: Potentiation of gemcitabine-induced antiviral activity against HIV1 infected in human U373-MAGI cells assessed as A to G mutation at 5 uM (reference value: 22%); format: functional
[30] = tested on: Human immunodeficiency virus 1; assay: Antiviral activity against HIV1 infected in human U373-MAGI cells assessed as G to A mutation at 200 uM (reference value: 27%); format: functional
[31] = tested on: Human immunodeficiency virus 1; assay: Potentiation of resveratrol-induced antiviral activity against HIV1 infected in human U373-MAGI cells G to A mutation at 200 uM (reference value: 27%); format: functional
[32] = tested on: Human immunodeficiency virus 1; assay: Potentiation of resveratrol-induced antiviral activity against HIV1 infected in human U373-MAGI cells at 200 uM incubated for 2 hrs prior to viral infection followed by compound washout after 24 hrs measured 72 hrs post-infection by flow cytometry; format: functional, organism-based; conditions: Human immunodeficiency virus 1, U373-MAGI
[33] = tested on: Human immunodeficiency virus 1; assay: Potentiation of resveratrol-induced antiviral activity against HIV1 infected in human U373-MAGI cells incubated for 2 hrs prior to viral infection followed by compound washout after 24 hrs measured 72 hrs post-infection by flow cytometry; format: functional, organism-based
[34] = tested on: Human immunodeficiency virus 1; assay: Potentiation of gemcitabine-induced antiviral activity against HIV1 infected in human U373-MAGI cells assessed as induction of mutations at 5 uM (reference value: 18%); format: functional
[35] = tested on: Human immunodeficiency virus 1; assay: Potentiation of gemcitabine-induced antiviral activity against HIV1 infected in human U373-MAGI cells G to A mutation at 5 uM (reference value: 27%); format: functional
[36] = tested on: Human immunodeficiency virus 1; assay: Potentiation of resveratrol-induced antiviral activity against HIV1 infected in human U373-MAGI cells assessed as A to G mutation at 200 uM (reference value: 22%); format: functional
[37] = tested on: Human immunodeficiency virus 1; assay: Antiviral activity against HIV1 infected in human U373-MAGI cells assessed as C to T mutation at 200 uM (reference value: 13%); format: functional
[38] = tested on: Human immunodeficiency virus 1; assay: Inhibition of gemcitabine-induced antiviral activity against HIV1 infected in human U373-MAGI cells assessed as increase in mutant frequency incubated for 2 hrs prior to viral infection followed by compound washout after 24 hrs measured 72 hrs post-infection by flow cytometry relative to gemcitabine; format: functional, organism-based
[39] = tested on: Human immunodeficiency virus 1; assay: Inhibition of gemcitabine-induced antiviral activity against HIV1 infected in human U373-MAGI cells at 100 to 200 uM incubated for 2 hrs prior to viral infection followed by compound washout after 24 hrs measured 72 hrs post-infection by flow cytometry; format: functional, organism-based
[40] = tested on: Human immunodeficiency virus 1; assay: Potentiation of gemcitabine-induced antiviral activity against HIV1 infected in human U373-MAGI cells assessed as induction of mutations at 200 uM (reference value: 18%); format: functional
[41] = tested on: Human immunodeficiency virus 1; assay: Potentiation of gemcitabine-induced antiviral activity against HIV1 infected in human U373-MAGI cells assessed as C to T mutation at 5 uM (reference value: 13%); format: functional
[42] = tested on: Human immunodeficiency virus 1; assay: Antiviral activity against HIV1 infected in human U373-MAGI cells assessed as increase in mutant frequency at 5 to 200 uM incubated for 2 hrs prior to viral infection followed by compound washout after 24 hrs measured 72 hrs post-infection by flow cytometry; format: functional
[43] = tested on: Human immunodeficiency virus 1; assay: Potentiation of resveratrol-induced antiviral activity against HIV1 infected in human U373-MAGI cells assessed as G to C mutation at 200 uM; format: functional
[44] = tested on: Human immunodeficiency virus 1; assay: Potentiation of resveratrol-induced antiviral activity against HIV1 infected in human U373-MAGI cells assessed as T to C mutation at 200 uM (reference value: 18%); format: functional
[45] = tested on: Human immunodeficiency virus 1; assay: Potentiation of deferoxamine-induced antiviral activity against HIV1 infected in human U373-MAGI cells incubated for 2 hrs prior to viral infection followed by compound washout after 24 hrs measured 72 hrs post-infection by flow cytometry; format: functional, organism-based
[46] = tested on: Human immunodeficiency virus 1; assay: Antiviral activity against HIV1 infected in human U373-MAGI cells assessed as G to C mutation at 200 uM; format: functional
[47] = tested on: Human immunodeficiency virus 1; assay: Potentiation of resveratrol-induced antiviral activity against HIV1 infected in human U373-MAGI cells assessed as increase in mutant frequency at 5 to 200 uM incubated for 2 hrs prior to viral infection followed by compound washout after 24 hrs measured 72 hrs post-infection by flow cytometry relative to control; format: functional

Nc1ccn([C@@H]2O[C@H](CO)[C@@H](O)C2(F)F)c(=O)n1 [GEMCITABINE]
CC50 ([1]; u373-magi): 62 µM | Activity [2]: 13% | Activity [3]: 24% | Activity [4]: 24% | Activity [5]: 13% | Activity [6]: 24% | Activity [7]: Dose-dependent effect

Nc1ncn([C@@H]2O[C@H](CO)[C@@H](O)[C@H]2O)c(=O)n1 [AZACITIDINE]
EC50 [8]: 53 µM

CC(=O)N(O)CCCCCNC(=O)CCC(=O)N(O)CCCCCNC(=O)CCC(=O)N(O)CCCCCN [DEFEROXAMINE]
CC50 ([1]; u373-magi): > 400 µM | EC50 [9]: 384 µM | selectivity ratio [10]: > 1 | Activity [7]: Dose-dependent effect

Oc1ccc(/C=C/c2cc(O)cc(O)c2)cc1 [RESVERATROL]
CC50 ([1]; U373-MAGI cells): > 400 µM | Activity [11]: 18% | Activity [12]: 16% | Activity [13]: 22% | EC50 [9]: 99.6 µM | Activity [14]: 38% | Activity [15]: 4% | Activity [7]: Dose-dependent effect

NC1=NC(=O)N([C@H]2C[C@H](O)[C@@H](CO)O2)CN1 [KP-1212]
Activity [16]: 9% | fold change (FC) [17]: 4.7 | EC50 [18]: 248 µM | Activity [19]: 8% | Activity [20]: 16% | Activity [21]: 14% | fold change (FC) [22]: 4.8 | Activity [23]: Active | Activity [24]: Non-toxic | Activity [25]: 18% | Activity [26]: 11% | Activity [27]: Active | EC50 [28]: 0.0216 µM | Activity [29]: 32% | Activity [30]: 24% | Activity [31]: 13% | EC50 [8]: 0.01 µM | EC50 [32]: 52.8 µM | Activity [33]: Dose-dependent effect | Activity [34]: 14% | Activity [35]: 18% | Activity [36]: 13% | Activity [37]: 10% | inhibition [38]: Active | inhibition [39]: Active | Activity [40]: 14% | Activity [41]: 12% | Activity [7]: Dose-dependent effect | fold change (FC) [42]: 1.6 | Activity [43]: 41% | Activity [44]: 10% | Activity [45]: Dose-dependent effect | Activity [46]: 22% | fold change (FC) [47]: 6.2
